Results: US20230113037A1 (Bayer Aktiengesellschaft, priority 2019, published 2023)
Like-named read-outs stand apart in the source and are kept apart here.

How the values were obtained:
[1] = molecular target: T1, AHR (Homo sapiens, UniProt P35869); experiment: In vitro assay 1: antagonism in human cell line (AHR transactivation, firefly luciferase reporter, kynurenic acid prestimulated); type: cell-based; conditions: AHR Antagonism Human IC50 [M]
T1 construct: U87 MG glioblastoma cells (ATCC #HTB-14) endogenously expressing AHR; endogenous in cells; host or cells: U87 MG glioblastoma cells (ATCC #HTB-14)
T1 sequence (P35869 11-848): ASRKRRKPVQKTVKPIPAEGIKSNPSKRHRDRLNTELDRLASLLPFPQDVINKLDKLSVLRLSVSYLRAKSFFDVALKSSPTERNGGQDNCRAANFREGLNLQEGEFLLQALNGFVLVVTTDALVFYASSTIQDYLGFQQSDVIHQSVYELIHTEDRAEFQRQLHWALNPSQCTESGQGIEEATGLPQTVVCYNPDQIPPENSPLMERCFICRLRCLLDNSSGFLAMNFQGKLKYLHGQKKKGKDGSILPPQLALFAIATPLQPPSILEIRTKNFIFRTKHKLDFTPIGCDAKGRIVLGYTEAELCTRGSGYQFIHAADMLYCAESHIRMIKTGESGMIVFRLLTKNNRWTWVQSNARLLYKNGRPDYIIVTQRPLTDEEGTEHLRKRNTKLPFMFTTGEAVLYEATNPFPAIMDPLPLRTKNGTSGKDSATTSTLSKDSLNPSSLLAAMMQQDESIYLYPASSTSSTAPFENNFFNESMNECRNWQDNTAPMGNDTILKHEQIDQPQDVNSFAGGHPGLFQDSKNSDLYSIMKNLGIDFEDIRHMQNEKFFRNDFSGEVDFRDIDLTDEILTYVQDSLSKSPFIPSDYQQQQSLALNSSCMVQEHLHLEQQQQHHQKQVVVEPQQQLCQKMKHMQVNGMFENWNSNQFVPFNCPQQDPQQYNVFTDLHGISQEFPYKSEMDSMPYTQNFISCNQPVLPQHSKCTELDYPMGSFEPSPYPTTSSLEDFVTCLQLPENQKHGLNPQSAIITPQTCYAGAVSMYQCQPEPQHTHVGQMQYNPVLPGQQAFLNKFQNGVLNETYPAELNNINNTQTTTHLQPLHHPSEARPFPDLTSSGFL
Summary of the method: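 Antagonism measured as loss of kynurenic acid-driven firefly luciferase from DRE reporter in stably transfected U87 MG cells; constitutive Renilla signal monitors cytotoxicity. Positive/negative control normalization, staurosporine 5 μM with 150 μM kynurenic acid as inhibition control; replicates given as mean or median.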

[2] = molecular target: T2, AHR (Mus musculus, UniProt P30561); experiment: In vitro assay 3: antagonism in mouse cell line (AHR transactivation, firefly luciferase reporter, kynurenic acid prestimulated); type: cell-based
T2 sequence (P30561 1-848 P471L/N533S/M589L): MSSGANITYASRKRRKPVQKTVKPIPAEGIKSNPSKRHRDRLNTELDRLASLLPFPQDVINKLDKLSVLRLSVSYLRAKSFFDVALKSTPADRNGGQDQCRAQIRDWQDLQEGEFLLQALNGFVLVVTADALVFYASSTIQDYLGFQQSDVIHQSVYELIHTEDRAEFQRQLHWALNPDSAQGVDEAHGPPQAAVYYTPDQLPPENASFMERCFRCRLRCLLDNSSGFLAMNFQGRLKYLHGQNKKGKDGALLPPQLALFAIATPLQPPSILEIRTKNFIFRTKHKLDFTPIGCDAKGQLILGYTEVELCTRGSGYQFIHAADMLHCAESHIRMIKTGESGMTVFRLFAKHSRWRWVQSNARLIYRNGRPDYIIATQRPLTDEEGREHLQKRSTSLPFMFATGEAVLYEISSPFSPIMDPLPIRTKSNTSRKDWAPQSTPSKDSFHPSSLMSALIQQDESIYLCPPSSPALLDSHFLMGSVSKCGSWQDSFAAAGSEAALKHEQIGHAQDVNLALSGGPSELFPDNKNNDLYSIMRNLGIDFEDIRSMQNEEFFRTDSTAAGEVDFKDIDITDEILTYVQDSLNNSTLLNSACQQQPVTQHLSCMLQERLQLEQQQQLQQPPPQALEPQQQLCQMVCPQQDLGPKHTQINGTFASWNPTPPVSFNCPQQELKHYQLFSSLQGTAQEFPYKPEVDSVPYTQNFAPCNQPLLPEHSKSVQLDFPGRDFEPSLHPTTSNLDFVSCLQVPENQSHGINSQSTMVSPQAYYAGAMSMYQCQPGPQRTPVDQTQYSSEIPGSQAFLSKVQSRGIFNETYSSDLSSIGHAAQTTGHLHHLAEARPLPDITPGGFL
Summary of the method: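 Kynurenic acid-prestimulated mouse reporter cells; stable AHR-inducible firefly luc construct with DRE sites in promoter. No-agonist wells = positive inhibition ctrl. Luminescence normalized to pos/neg ctrls; n>1 reported as mean or median.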

[3] = mouse Hepa 1c1c7 cells, 200 μM kynurenic acid, 20 hours, read-out: AHR Antagonism Mouse IC50
[4] = read-out: AHR Antagonism Mouse IC50, mouse Hepa 1c1c7 cells, 200 μM kynurenic acid, 20 hours
[5] = Hepa 1c1c7 cells, 200 μM kynurenic acid, 20 hours, firefly luciferase reporter, read-out: AHR Antagonism Mouse IC50

SMILES | IC50 [1] [M] | IC50 [2, 3] [nM] | IC50 [2, 4] [nM] | IC50 ([1]; firefly luciferase reporter) [M] | IC50 [2, 5] [nM]
COc1cccc2c1nc(N[C@@H]1CCCCNC1=O)n1nc(-c3cnn(C)c3)nc21 [Example 752, (3R)-3-{[7-methoxy-2-(1-methyl-1H-pyrazol-4-yl)[1,2,4]triazolo[1,5-c]quinazolin-5-yl]amino}azepan-2-one] | 2.29e-07 | 953 | – | – | –
Cc1sccc1-c1nc2c3ccccc3nc(N[C@@H]3CCN(C)C3=O)n2n1 [Example 350] | 4.13e-08 | 3.59 | – | – | –
O=C1NCCCC[C@H]1Nc1nc2c(F)cccc2c2nc(-c3cccc(F)c3)nn12 [Example 137, (3R)-3-{[7-fluoro-2-(3-fluorophenyl)[1,2,4]triazolo[1,5-c]quinazolin-5-yl]amino}azepan-2-one] | 2.16e-09 | – | 0.823 | – | –
COc1cccc(-c2nc3c4ccccc4nc(N[C@H](C)C(N)=O)n3n2)c1 [Example 92, N^2-[2-(3-methoxyphenyl)[1,2,4]triazolo[1,5-c]quinazolin-5-yl]-D-alaninamide] | 8.63e-09 | 4.38 | – | – | –
COc1ccc(-c2nc3c4ccc(C#N)cc4nc(N[C@@H]4CCCCNC4=O)n3n2)cc1 [Example 400, 2-(4-Methoxyphenyl)-5-{[(3R)-2-oxoazepan-3-yl]amino}[1,2,4]triazolo[1,5-c]quinazoline-8-carbonitrile] | 4.16e-08 | 119 | – | – | –
O=C1NCCCC[C@H]1Nc1nc2ccccc2c2nc(-c3ccc(F)cc3OC(F)(F)F)nn12 [Example 516, (3R)-3-({2-[4-fluoro-2-(trifluoromethoxy)phenyl][1,2,4]triazolo[1,5-c]quinazolin-5-yl}amino)azepan-2-one] | 4.64e-09 | 2.18 | – | – | –
COCc1cccc2c1nc(N[C@@H]1CCCCNC1=O)n1nc(-c3ccc(OC)cc3)nc21 [Example 1003, (3R)-3-{[7-(methoxymethyl)-2-(4-methoxyphenyl)[1,2,4]triazolo[1,5-c]quinazolin-5-yl]amino}azepan-2-one] | – | – | – | 9.15e-10 | 4.06
CS(=O)(=O)c1ccccc1-c1nc2c3ccccc3nc(N[C@@H]3CCCCNC3=O)n2n1 [Example 649, (3R)-3-({2-[2-(methanesulfonyl)phenyl][1,2,4]triazolo[1,5-c]quinazolin-5-yl}amino)azepan-2-one] | 3.8e-07 | 27.3 | – | – | –
COc1cccc(-c2nc3c4ccccc4nc(NC4CCN(C)C4=O)n3n2)c1 (single isomer, unassigned) [Example 123, 3-{[2-(3-methoxyphenyl)[1,2,4]triazolo[1,5-c]quinazolin-5-yl]amino}-1-methylpyrrolidin-2-one] | 3.65e-07 | 1870 | – | – | –
COc1cccc(-c2nc3c4c(F)cccc4nc(N[C@@H]4CCCCNC4=O)n3n2)c1 [Example 185] | 1.05e-08 | 9.84 | – | – | –
N#Cc1cccc2nc(N[C@@H]3CCCCNC3=O)n3nc(-c4ccc(F)cc4)nc3c12 [Example 248, 2-(4-fluorophenyl)-5-{[(3R)-2-oxoazepan-3-yl]amino}[1,2,4]triazolo[1,5-c]quinazoline-10-carbonitrile] | 5.71e-09 | 1.82 | – | – | –
O=C1NCCNC[C@H]1Nc1nc2ccccc2c2nc(-c3ccc(Br)cc3Cl)nn12 [Example 255, (6R)-6-{[2-(4-bromo-2-chlorophenyl)[1,2,4]triazolo[1,5-c]quinazolin-5-yl]amino}-1,4-diazepan-5-one] | 4.98e-08 | 5.1 | – | – | –
C[C@@H]1COCCN1C(=O)[C@@H](C)Nc1nc2c(Br)cccc2c2nc(-c3cnn(C)c3)nn12 [Example 912, (2R)-2-{[7-bromo-2-(1-methyl-1H-pyrazol-4-yl)[1,2,4]triazolo[1,5-c]quinazolin-5-yl]amino}-1-[(3R)-3-methylmorpholin-4-yl]propan-1-one] | – | – | – | 2.16e-08 | 13.7
COc1cccc(-c2nc3c4c(C)cccc4nc(N[C@@H]4CCCCNC4=O)n3n2)c1 [Example 178, (3R)-3-{[2-(3-methoxyphenyl)-10-methyl[1,2,4]triazolo[1,5-c]quinazolin-5-yl]amino}azepan-2-one] | 3.98e-09 | 2.34 | – | – | –
Cn1cc(-c2nc3c4cccc(S(C)(=O)=O)c4nc(N[C@@H]4CCCCNC4=O)n3n2)cn1 [Example 858, (3R)-3-{[7-(methanesulfonyl)-2-(1-methyl-1H-pyrazol-4-yl)[1,2,4]triazolo[1,5-c]quinazolin-5-yl]amino}azepan-2-one] | – | – | – | 1.07e-07 | 1560
O=C1NCCCC[C@@H]1Nc1nc2c(Br)cccc2c2nc(-c3ccc(Cl)cc3OC(F)(F)F)nn12 [Example 572, (3S)-3-({7-bromo-2-[4-chloro-2-(trifluoromethoxy)phenyl][1,2,4]triazolo[1,5-c]quinazolin-5-yl}amino)azepan-2-one] | > 2e-05 | 131 | – | – | –
C[C@@H](Nc1nc2c(Br)cccc2c2nc(-c3cnn(C)c3)nn12)C(=O)N1CCN(C)CC1 [Example 786, (2R)-2-{[7-bromo-2-(1-methyl-1H-pyrazol-4-yl)[1,2,4]triazolo[1,5-c]quinazolin-5-yl]amino}-1-(4-methylpiperazin-1-yl)propan-1-one] | – | – | – | 2.2e-08 | 22.1
O=C1NCCCC[C@H]1Nc1nc2ccccc2c2nc(-c3cccc(F)c3)nn12 [Example 11, (3R)-3-{[2-(3-fluorophenyl)[1,2,4]triazolo[1,5-c]quinazolin-5-yl]amino}azepan-2-one] | 1.36e-09 | – | 0.569 | – | –
Cc1ccc2nc(N[C@@H]3CCCCNC3=O)n3nc(-c4cnn(C)c4)nc3c2c1 [Example 158, (3R)-3-{[9-methyl-2-(1-methyl-1H-pyrazol-4-yl)[1,2,4]triazolo[1,5-c]quinazolin-5-yl]amino}azepan-2-one] | 1.77e-08 | 32.2 | – | – | –
CC[C@@H](Nc1nc2ccccc2c2nc(-c3ccc(S(C)(=O)=O)cc3)nn12)C(N)=O [Example 376, (2R)-2-({2-[4-(methanesulfonyl)phenyl][1,2,4]triazolo[1,5-c]quinazolin-5-yl}amino)butanamide] | 1.61e-08 | 4.93 | – | – | –
Cc1cscc1-c1nc2c3ccccc3nc(N[C@@H]3CCCNC3=O)n2n1 [Example 540] | 6.05e-08 | 6.24 | – | – | –
CCn1cc(-c2nc3c4cccc(Cl)c4nc(N[C@@H]4CCCCNC4=O)n3n2)cn1 [Example 818, (3R)-3-{[7-chloro-2-(1-ethyl-1H-pyrazol-4-yl)[1,2,4]triazolo[1,5-c]quinazolin-5-yl]amino}azepan-2-one] | – | – | – | 6.2e-10 | 2.18
COc1ccc(-c2nc3c4ccc(C(C)C)cc4nc(N[C@@H]4CCCCNC4=O)n3n2)cc1 [Example 395, (3R)-3-{[2-(4-Methoxyphenyl)-8-(propan-2-yl)[1,2,4]triazolo[1,5-c]quinazolin-5-yl]amino}azepan-2-one] | 3e-07 | 2410 | – | – | –
